Measured values published in PubChem BioAssay (NCI).
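GI50 = concentration required for 50% inhibition of growth. At the TGI there is no net growth.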

Key:
Test in all cases: NCI-60 cell line screen, 384-well format
786-0 renal = test system: 786-0 renal
HS 578T breast = test system: HS 578T breast
NCI-H23 lung = test system: NCI-H23 lung
SK-MEL-28 melanoma = test system: SK-MEL-28 melanoma
T-47D breast = test system: T-47D breast
OVCAR-4 ovarian = test system: OVCAR-4 ovarian
MCF7 breast = test system: MCF7 breast
HT29 colon = test system: HT29 colon
A498 renal = test system: A498 renal
HCT-15 colon = test system: HCT-15 colon
MDA-MB-468 breast = test system: MDA-MB-468 breast
NCI-H460 NSCLC = test system: NCI-H460 NSCLC
TK-10 renal = test system: TK-10 renal
HL-60(TB) leukemia = test system: HL-60(TB) leukemia
OVCAR-8 ovarian = test system: OVCAR-8 ovarian
HOP-92 NSCLC = test system: HOP-92 NSCLC
BT-549 breast = test system: BT-549 breast
MALME-3M melanoma = test system: MALME-3M melanoma
LOX IMVI melanoma = test system: LOX IMVI melanoma
SK-MEL-2 melanoma = test system: SK-MEL-2 melanoma
MDA-MB-435 melanoma = test system: MDA-MB-435 melanoma
COLO 205 colon = test system: COLO 205 colon
SK-OV-3 ovarian = test system: SK-OV-3 ovarian
EKVX NSCLC = test system: EKVX NSCLC
NCI-H322M lung = test system: NCI-H322M lung
M14 melanoma = test system: M14 melanoma
HCT-116 colon = test system: HCT-116 colon
SF-295 CNS = test system: SF-295 CNS
RXF 393 renal = test system: RXF 393 renal
UO-31 renal = test system: UO-31 renal
NCI-H522 lung = test system: NCI-H522 lung
CCRF-CEM leukemia = test system: CCRF-CEM leukemia
SNB-75 CNS = test system: SNB-75 CNS
KM12 colon = test system: KM12 colon
UACC-62 melanoma = test system: UACC-62 melanoma
ACHN renal = test system: ACHN renal
SW-620 colon = test system: SW-620 colon
SNB-19 CNS = test system: SNB-19 CNS
SF-268 CNS = test system: SF-268 CNS
CAKI-1 renal = test system: CAKI-1 renal
SK-MEL-5 melanoma = test system: SK-MEL-5 melanoma
OVCAR-3 ovarian = test system: OVCAR-3 ovarian
SR leukemia = test system: SR leukemia
A549 NSCLC = test system: A549 NSCLC
NCI/ADR-RES ovarian = test system: NCI/ADR-RES ovarian
K-562 leukemia = test system: K-562 leukemia
IGROV1 ovarian = test system: IGROV1 ovarian

SMILES: c1ccc2c(NCCCN3CCN(CCCNc4c5ccccc5nc5ccccc45)CC3)c3ccccc3nc2c1
- GI50 ([…]-0 renal): 0.204 µM
- TGI (786-0 renal): 1.47 µM
- GI50 (HS 578T breast): 0.174 µM
- TGI (HS 578T breast): 1.17 µM
- GI50 (NCI-H23 lung): 0.327 µM
- TGI (NCI-H23 lung): 1.34 µM
- GI50 (SK-MEL-28 melanoma): 1.82 µM
- TGI (SK-MEL-28 melanoma): 3.24 µM
- GI50 (T-47D breast): 1.1 µM
- TGI (T-47D breast): 3.61 µM
- GI50 (OVCAR-4 ovarian): 0.446 µM
- TGI (OVCAR-4 ovarian): 1.22 µM
- GI50 (MCF7 breast): 0.208 µM
- TGI (MCF7 breast): 0.909 µM
- GI50 (HT29 colon): 0.339 µM
- TGI (HT29 colon): 1.53 µM
- GI50 (A498 renal): 0.504 µM
- TGI (A498 renal): 2.05 µM
- GI50 (HCT-15 colon): 2.58 µM
- TGI (HCT-15 colon): 8.97 µM
- GI50 (MDA-MB-468 breast): 0.305 µM
- TGI (MDA-MB-468 breast): 0.67 µM
- GI50 (NCI-H460 NSCLC): 0.17 µM
- TGI (NCI-H460 NSCLC): 0.384 µM
- GI50 (TK-10 renal): 0.605 µM
- TGI (TK-10 renal): 3.16 µM
- GI50 (HL-60(TB) leukemia): 0.108 µM
- TGI (HL-60(TB) leukemia): 0.243 µM
- GI50 (OVCAR-8 ovarian): 0.296 µM
- TGI (OVCAR-8 ovarian): 1.56 µM
- GI50 (HOP-92 NSCLC): 0.425 µM
- TGI (HOP-92 NSCLC): 2.45 µM
- GI50 (BT-549 breast): 1.2 µM
- TGI (BT-549 breast): 2.57 µM
- GI50 (MALME-3M melanoma): 0.702 µM
- TGI (MALME-3M melanoma): 1.88 µM
- GI50 (LOX IMVI melanoma): 0.665 µM
- TGI (LOX IMVI melanoma): 1.86 µM
- GI50 (SK-MEL-2 melanoma): 0.261 µM
- TGI (SK-MEL-2 melanoma): 0.434 µM
- GI50 (MDA-MB-435 melanoma): 1.26 µM
- TGI (MDA-MB-435 melanoma): 2.54 µM
- GI50 (COLO 205 colon): 1.28 µM
- TGI (COLO 205 colon): 3.06 µM
- GI50 (SK-OV-3 ovarian): 0.458 µM
- TGI (SK-OV-3 ovarian): 2.45 µM
- GI50 (EKVX NSCLC): 1.33 µM
- TGI (EKVX NSCLC): 3.95 µM
- GI50 (NCI-H322M lung): 0.277 µM
- TGI (NCI-H322M lung): 1.38 µM
- GI50 (M14 melanoma): 1.32 µM
- TGI (M14 melanoma): 2.63 µM
- GI50 (HCT-116 colon): 0.267 µM
- TGI (HCT-116 colon): 1.28 µM
- GI50 (SF-295 CNS): 1.03 µM
- TGI (SF-295 CNS): 3.49 µM
- GI50 (RXF 393 renal): 0.421 µM
- TGI (RXF 393 renal): 1.46 µM
- GI50 (UO-31 renal): 1.78 µM
- TGI (UO-31 renal): 4.05 µM
- GI50 (NCI-H522 lung): 0.0647 µM
- TGI (NCI-H522 lung): 0.26 µM
- GI50 (CCRF-CEM leukemia): 0.118 µM
- TGI (CCRF-CEM leukemia): 0.551 µM
- GI50 (SNB-75 CNS): 0.361 µM
- TGI (SNB-75 CNS): 1.41 µM
- GI50 (KM12 colon): 0.539 µM
- TGI (KM12 colon): 2.26 µM
- GI50 (UACC-62 melanoma): 0.336 µM
- TGI (UACC-62 melanoma): 1.15 µM
- GI50 (ACHN renal): 0.345 µM
- TGI (ACHN renal): 2.24 µM
- GI50 (SW-620 colon): 0.452 µM
- TGI (SW-620 colon): 2.35 µM
- GI50 (SNB-19 CNS): 0.433 µM
- TGI (SNB-19 CNS): 6.93 µM
- GI50 (SF-268 CNS): 0.301 µM
- TGI (SF-268 CNS): 1.19 µM
- GI50 (CAKI-1 renal): 0.929 µM
- TGI (CAKI-1 renal): 4.69 µM
- GI50 (SK-MEL-5 melanoma): 1.01 µM
- TGI (SK-MEL-5 melanoma): 2.24 µM
- GI50 (OVCAR-3 ovarian): 0.651 µM
- TGI (OVCAR-3 ovarian): 2.12 µM
- GI50 (SR leukemia): 0.155 µM
- TGI (SR leukemia): 0.328 µM
- GI50 (A549 NSCLC): 0.445 µM
- TGI (A549 NSCLC): 1.93 µM
- GI50 (NCI/ADR-RES ovarian): 5.28 µM
- TGI (NCI/ADR-RES ovarian): > 100 µM
- GI50 (K-562 leukemia): 1.11 µM
- TGI (K-562 leukemia): 3.6 µM
- GI50 (IGROV1 ovarian): 0.228 µM
- TGI (IGROV1 ovarian): 1.43 µM

SMILES: CN1CCN(c2ccc(-c3cccc(CN4CCOCC4)c3)cc2NC(=O)c2c[nH]c(=O)cc2C(F)(F)F)CC1
- GI50 ([…]-0 renal): 10.4 µM
- TGI (786-0 renal): 34.2 µM
- GI50 (HS 578T breast): 12.2 µM
- TGI (HS 578T breast): 34.4 µM
- GI50 (NCI-H23 lung): 17.3 µM
- TGI (NCI-H23 lung): > 86.1 µM
- GI50 (SK-MEL-28 melanoma): 17 µM
- TGI (SK-MEL-28 melanoma): 31 µM
- GI50 (T-47D breast): 23.1 µM
- TGI (T-47D breast): > 88.9 µM
- GI50 (OVCAR-4 ovarian): 50.4 µM
- TGI (OVCAR-4 ovarian): > 100 µM
- GI50 (MCF7 breast): 16.8 µM
- TGI (MCF7 breast): > 62.7 µM
- GI50 (HT29 colon): 14.2 µM
- TGI (HT29 colon): 32 µM
- GI50 (A498 renal): 17.3 µM
- TGI (A498 renal): 40.7 µM
- GI50 (HCT-15 colon): 12.3 µM
- TGI (HCT-15 colon): 44.8 µM
- GI50 (MDA-MB-468 breast): 12 µM
- TGI (MDA-MB-468 breast): 28.9 µM
- GI50 (NCI-H460 NSCLC): 8.79 µM
- TGI (NCI-H460 NSCLC): 23.5 µM
- GI50 (TK-10 renal): 30.5 µM
- TGI (TK-10 renal): > 90.4 µM
- GI50 (HL-60(TB) leukemia): 8.87 µM
- TGI (HL-60(TB) leukemia): 20.1 µM
- GI50 (OVCAR-8 ovarian): 18.3 µM
- TGI (OVCAR-8 ovarian): > 100 µM
- GI50 (HOP-92 NSCLC): 24.9 µM
- TGI (HOP-92 NSCLC): > 77.4 µM
- GI50 (BT-549 breast): 26.5 µM
- TGI (BT-549 breast): > 68.5 µM
- GI50 (MALME-3M melanoma): 14.7 µM
- TGI (MALME-3M melanoma): 28.1 µM
- GI50 (LOX IMVI melanoma): 9.13 µM
- TGI (LOX IMVI melanoma): 23 µM
- GI50 (SK-MEL-2 melanoma): 20.9 µM
- TGI (SK-MEL-2 melanoma): 43.3 µM
- GI50 (MDA-MB-435 melanoma): 31.7 µM
- TGI (MDA-MB-435 melanoma): > 100 µM
- GI50 (COLO 205 colon): 8.59 µM
- TGI (COLO 205 colon): > 89 µM
- GI50 (SK-OV-3 ovarian): > 61.1 µM
- TGI (SK-OV-3 ovarian): > 100 µM
- GI50 (EKVX NSCLC): 33.5 µM
- TGI (EKVX NSCLC): > 100 µM
- GI50 (NCI-H322M lung): 53.3 µM
- TGI (NCI-H322M lung): > 100 µM
- GI50 (M14 melanoma): 16 µM
- TGI (M14 melanoma): 29.8 µM
- GI50 (HCT-116 colon): 12.7 µM
- TGI (HCT-116 colon): > 78.2 µM
- GI50 (SF-295 CNS): 17.8 µM
- TGI (SF-295 CNS): 56.8 µM
- GI50 (RXF 393 renal): 11.4 µM
- TGI (RXF 393 renal): 33.3 µM
- GI50 (UO-31 renal): 14.5 µM
- TGI (UO-31 renal): > 100 µM
- GI50 (NCI-H522 lung): 22.8 µM
- TGI (NCI-H522 lung): 69.6 µM
- GI50 (CCRF-CEM leukemia): 6.98 µM
- TGI (CCRF-CEM leukemia): 13.8 µM
- GI50 (SNB-75 CNS): 22.2 µM
- TGI (SNB-75 CNS): > 68.3 µM
- GI50 (KM12 colon): 15.9 µM
- TGI (KM12 colon): > 87.6 µM
- GI50 (UACC-62 melanoma): 19 µM
- TGI (UACC-62 melanoma): 62.8 µM
- GI50 (ACHN renal): 37.9 µM
- TGI (ACHN renal): > 100 µM
- GI50 (SW-620 colon): 11.7 µM
- TGI (SW-620 colon): > 45.2 µM
- GI50 (SNB-19 CNS): 46.3 µM
- TGI (SNB-19 CNS): > 100 µM
- GI50 (SF-268 CNS): 14.7 µM
- TGI (SF-268 CNS): > 29.6 µM
- GI50 (CAKI-1 renal): 25 µM
- TGI (CAKI-1 renal): > 100 µM
- GI50 (SK-MEL-5 melanoma): 13.6 µM
- TGI (SK-MEL-5 melanoma): 26.6 µM
- GI50 (OVCAR-3 ovarian): 18.9 µM
- TGI (OVCAR-3 ovarian): > 74.4 µM
- GI50 (SR leukemia): 12.2 µM
- TGI (SR leukemia): 24.8 µM
- GI50 (A549 NSCLC): 14.4 µM
- TGI (A549 NSCLC): > 100 µM
- GI50 (NCI/ADR-RES ovarian): > 58.1 µM
- TGI (NCI/ADR-RES ovarian): > 100 µM
- GI50 (K-562 leukemia): 12.3 µM
- TGI (K-562 leukemia): 25.3 µM
- GI50 (IGROV1 ovarian): 31.3 µM
- TGI (IGROV1 ovarian): 98.2 µM
